Experimental data from patent publication US20120040904A1, “Boronate Medicaments for Preventing Thrombosis During Surgery” (Trigen Holdings AG, priority 2004, published 2012).
Marks after values point to notes of the source that are not given here.

Tests used:
[1] = Stability: HPLC assay before and after drying over phosphorus pentoxide for 1 week; type: physicochemical; settings: dry
Method: An assay of TRI 50c and its sodium and lysine salts before and after drying.
For sample analysis, 5 mg of dried and non-dried material was weighed in a 5 mL volumetric flask and dissolved in 1 mL acetonitrile and filled up with demineralised water to 5 mL.
The quantitative evaluation was performed using an HPLC-PDA method.

[2] = Comparative storage stability of sodium and calcium salts (Example 42); type: physicochemical; settings: for Tri50c (w/w %, LOD corr.): corrected for loss on drying
From the text: In both studies the active pharmaceutical ingredient was stored in grip sealed double bags within a PE/PP screw cap closed cylinder.

[3] = Maximum solution concentration with and without pH control; type: physicochemical
[4] = tested on: dogs undergoing hypothermic CPB; assay: Simulated mitral valve repair in dogs undergoing hypothermic CPB; type: in vivo, beagle dogs; settings: intravenous, dogs on CPB
Method: Following a dose ranging study in conscious dogs, six beagle dogs were placed on CPB and underwent a simulated mitral valve repair. A range of dynamic coagulation markers were measured, including thrombin clotting time (TT), activated partial thromboplastin time (APTT), activated clotting time (ACT), ecarin clotting time (ECT), whole blood thrombin clotting time, platelet counts and function tests. In addition, pre and post-operative echocardiograms and intra-operative blood loss were evaluated. […] By virtue of its predictable anticoagulant efficacy and controlled duration of action, TGN 255 offers potential in on pump and off pump coronary bypass procedures.

healthy male subjects = assay: Intravenous administration into humans (randomised double blind placebo study); type: in vivo; settings: intravenous infusion
Method: The test consisted of three groups, each of six males. From each group 5 men were given the active ingredient and 1 was given a placebo.
Total I.V. administered doses were: • 82 mg (7 mg intravenous bolus (over 30 s) followed by an infusion of 25 mg/h for 3 hours). • 130 mg (10 mg intravenous bolus (over 30 s) followed by an infusion of 40 mg/h for 3 hours). • 120 mg (by infusion of 40 mg/h for 3 hours).

beagle dogs = assay: Intravenous administration in beagle dogs, PK/PD (thrombin time, APTT); type: in vivo; settings: 1.0 mg/kg i.v.
Method: Plasma concentrations were measured using an LCMS/MS method.
Blood samples were taken into 3.8% tri-sodium citrate (1+8) at pre dose, 2, 5, 10, 20, 30, minutes post dose and then at 1, 2, 3, 4, 6, 8, 12 and 24 hours post dose. Plasma was prepared by centrifugation and frozen at minus 20° C. pending analysis.

COCCC[C@H](NC(=O)[C@@H]1CCCN1C(=O)[C@@H](Cc1ccccc1)NC(=O)OCc1ccccc1)B(O)O [TRI 50c, Cbz-(R)-Phe-(S)-Pro-(R)-boroMpg-OH]
Amount [1]: 1000.0 µg/mL

COCCC[C@H](NC(=O)[C@@H]1CCCN1C(=O)[C@@H](Cc1ccccc1)NC(=O)OCc1ccccc1)B([O-])O.COCCC[C@H](NC(=O)[C@@H]1CCCN1C(=O)[C@@H](Cc1ccccc1)NC(=O)OCc1ccccc1)B([O-])O.[Ca+2] [TRI 50c calcium salt]
Tri50c (w/w %, LOD corr.) ([2]; T = 0): (99.7) w/w % | Tri50c (w/w %, LOD corr.) ([2]; T = 1, 25° C./60% r.h.): (101.5) w/w % | Tri50c (w/w %, LOD corr.) ([2]; T = 1, 40° C./75% r.h.): (100.6) w/w % | Tri50c (w/w %, LOD corr.) ([2]; T = 1, −20° C.): (102.7)^x w/w % | Tri50c (w/w %, LOD corr.) ([2]; T = 3, 25° C./60% r.h.): (104.3) w/w % | Tri50c (w/w %, LOD corr.) ([2]; T = 3, 40° C./75% r.h.): (82.0) w/w % | Tri50c (w/w %, LOD corr.) ([2]; T = 3, −20° C.): (103.0)^x w/w % | TRI 50c (w/w) ([2]; T = 12 25° C./60% r.h.): 94.8 w/w

COCCC[C@H](NC(=O)[C@@H]1CCCN1C(=O)[C@@H](Cc1ccccc1)NC(=O)OCc1ccccc1)B(O)O.[Na+] [TRI 50c sodium salt, Cbz-(R)-Phe-(S)-Pro-(R)-Mpg-B(OH)2 monosodium salt]
Maximum concentration ([3]; control solution, about pH 7): about 20 mg/ml | Concentration of solution obtainable ([3]; pH of about 9.5, pH not controlled): about 600 mg/ml | Anticoagulation during bypass and surgery [4]: excellent anticoagulation | Bleeding during bypass and surgery [4]: little bleeding | Effect on thrombin time (TT) (healthy male subjects): rapid, dose-related increase | APTT elevation (beagle dogs): 1.3 times
